# From ChEMBL document CHEMBL1158319, “New protopine and benzyltetrahydroprotoberberine alkaloids from Aristolochia constricta and their activity on isolated guinea-pig ileum” (J Nat Prod, 1997)
# Columns and labels:
# Assay type in all cases: functional, tissue-based
# Conditions in all cases: Cavia porcellus, 0.5 h
# Ileum [1] = assay: Antispasmodic activity in guinea pig ileum assessed as inhibition of acetylcholine-induced tissue contraction after 30 mins
# Ileum [2] = assay: Antispasmodic activity in guinea pig ileum assessed as inhibition of electrically-induced tissue contraction after 30 mins
# Ileum [3] = assay: Antispasmodic activity in guinea pig ileum assessed as inhibition of histamine-induced tissue contraction after 30 mins
Structure (SMILES),IC50 (Ileum [1]) [µM],IC50 (Ileum [2]) [µM],IC50 (Ileum [3]) [µM]
O=C1Cc2ccc(O)cc2/C=N/C=C\c2cc(O)ccc21 [CONSTRICTOSINE],75,66,51
COc1ccc2c(c1)/C=C\N=C\c1cc(O)ccc1CC2=O,85,86,59
COc1ccc2c(c1)/C=N/CCc1cc(OC)ccc1C(=O)C2,20,19,22

# More lines, in order of falling IC50 (Ileum [1]), values ahead:
IC50 (Ileum [1]) [µM],IC50 (Ileum [2]) [µM],IC50 (Ileum [3]) [µM],Structure (SMILES)
58,66,68,COc1ccc2c(c1)/C=C\N=C\c1cc(OC)ccc1CC2=O
26,21,26,O=C1Cc2ccc(O)cc2/C=N/CCc2cc(O)ccc21
